Results taken from article PMC8910872, “A Competition between Hydrogen, Stacking, and Halogen Bonding in N-(4-((3-Methyl-1,4-dioxo-1,4-dihydronaphthalen-2-yl)selanyl)phenyl)acetamide: Structure, Hirshfeld Surface Analysis, 3D Energy Framework Approach, and DFT Calculation” (International Journal of Molecular Sciences, 2022).
Entries after “also recorded” stand apart in the source; their conditions may differ.

Assays:
158N cells [1] = assay: MTT cytotoxicity assay on 158N oligodendrocytes; type: cell-based, Murine; details: Mus musculus, 0, 1, 10, 20, 50, 100 µM, mean of two parallel experiments, read-out: IC50 (viability of 158N cells)
Description: (§1) The cytotoxicity was estimated by the MTT assay against different oligodendrocytes, such as 158 JP and 158 N cells, and 7-ketocholesterol was the control. Different in vitro assays were used to estimate the redox activity, including the dihydroethidium (DHE), 2′,7′-dichlorodihydrofluorescein diacetate (H2-DCFDA), 2,2′-azinobis-3-ethylbenzothioazoline-6-sulphonate (ABTS), 2,2-diphenyl-2-picrylhydrazyl (DPPH), and the bleomycin-induced DNA damage assays.
(§2) Murine oligodendrocytes (158N and 158JP) were seeded at 240,000 cells per 24-well plates and were grown using the Dulbecco’s Modified Eagle Medium supplemented with penicillin antibiotics (1% v/v, streptomycin) and fetal bovine serum (5% v/v) and kept at 37 °C an atmosphere containing 5% CO2 [3]. […] Organ ic sel enides 4 and 5 were prepared in DMSO and then diluted with DMEM up to 1 mM.
The MTT assay was carried out on 158N and 158JP cells after one day of incubation with 7kc (50µM)/different concentrations (0, 1, 10, 20, 50, and 100 µM) of the o rganic selenides 4 an d 5 were. In live cells, the MTT is reduced to formazan by the succinate dehydrogenase mitochondrial enzy me. The microplate reader Tecan Sunrise (Tecan, Lyon, France) was used for the reading of the plates at 570 nm. The IC50 values and the maximu m concentrations without toxicity were estimated for organic selenides 4 and 5 from the respective dose-response curves.
Table S1. Effect of the organoselenium compounds on the viability of 158N and 158JP […]
The cytotoxicity was measured after two days of treatment with different concentrations (0, 1, 10, 20, 50, and 100 µM) of the organic selenides using the MTT assay. The IC50 was estimated as the mean of two parallel experiments;

158N cells [2] = assay: DHE assay of superoxide anion (O2•−) production (flow cytometry); type: cell-based, Murine; details: for DHE assay (% of positive cells), superoxide anion production: 158N cells, mean ± SD
Description: as §1
(§3) The levels of ROS were monitored with the H2-DCFDA and DHE assays using flow cytometry. Briefly, 158 N cells were mixed with serial concentrations (0–50 μM) of compound 4 and compound 5 using Vitamin E as the control.
ROS overproduction and O2•− were detected with DCF and DHE, respectively. Cultured cells were treated with trypsin re-suspended in PBS (10^6 cells/mL) and kept in the dark for a half-hour at 37°C with H2-DCFDA or DHE at 10 μM and 2 μM and cells were analyzed by flow cytometry. […]
Flomax (Partec) or FlowJo (Tree Star Inc.) software was used for th e data analysis. […]
Table S3. Evaluation of the effects of compounds on superoxide anions (O2•− ) production […]
DHE assay (% of positive cells)
158N Cells were grown in the presence of different compounds (C1=10; C2= 20; C3=50 µM); Flow cytometry techniques was used to estimate the O2•− production via staining with DHE; Data are shown as mean ± SD and expressed as % control; Significance of the difference between the DMSO and compounds. […]

HepG2 = tested on: HepG2; design: method as in PMID 29864687, doi:10.1016/j.arabjc.2021.103051; details: read-out: IC50 (cytotoxic activity against HepG2); cited from earlier work
[3] = GPx-like activity assay (NADPH-coupled, H2O2 reduction); type: biochemical; details: ebselen (41 µM) positive control
Protocol: page 19: GPx -like activity The GPx-kit was purchased from Biodiagnostic (Egypt) and used according to the reported method. The sample was prepared by adding assay buffer and NADPH reagent (0 .1 ml; 24 μmol Glutathione, 4.8 μmol NADPH and12 units Glutathione reductase), and organic selenide 4 (0.01 ml, 41 μM). H2O2 (0.8 mM) was then added, and the absorbance was kinetically recorded every 1 min at wavelength 340 nm over three successive minutes. […]/min was calculated. Ebselen (41 μM) was used as the positive control. For colored organoselenium compounds, their absorbance was subtracted at the used wavelength. 0.008 0.007 0.006 0.005 0.004 0.003 0.002 0.001 0 Eb selen 4 5 Figure S11 . GPx-like activity assay (μM. min-1). The reduction of H2O2 by GPx-like activity was tracked by […] of glutathione disulfide (GSSG) and NADPH to glutathion e (GSH, reduced form) and NADP+, respectively. The latter was detected by a decrease in the absorbance at 340 nm. References 1. […], Jacob C. Sulfur, selenium and tellurium pseudopeptides: synthesis and biological evaluation. Bioo rg. Med. Chem. 22(14), 3610-3619 (2014). 2. […]. Synthesis and anti-tumor evaluation of novel organoselenocyanates and symmetrical diselenides dyestuffs . Der Pharma Chemica. 6, 186-193 (2014).

158JP cells = assay: MTT cytotoxicity assay on 158JP oligodendrocytes; type: cell-based, Murine; details: mean of two parallel experiments
Description: as §1, §2
The MTT assay was carried out on 158N and 158JP cells after one day of incubation with 7kc (50µM)/different concentrations (0, 1, 10, 20, 50, and 100 µM) of the o rganic selenides 4 an d 5 were. […] The microplate reader Tecan Sunrise (Tecan, Lyon, France) was used for the reading of the plates at 570 nm. […]
The cytotoxicity was measured after two days of treatment with different concentrations (0, 1, 10, 20, 50, and 100 µM) of the organic selenides using the MTT assay. […]

calf thymus DNA = assay: Bleomycin-dependent DNA damage assay; type: biochemical; design: Bleomycin-dependent DNA damage assay (Abs.): scale not given here; details: 2 mM tested compound; for Bleomycin-dependent DNA damage assay (Abs.): absorbance at 532 nm, means of 3 replicates; for Bleomycin-dependent DNA damage, % of Vitamin C: relative to L-ascorbic acid (2 mM)
Description: as §1
(§4) Bleomycin-dependent DNA damage
The assay was performed according to the reported method with minor modifications. The reaction mixture contained 0.5 mg/ml calf thymus DNA, 0.05 mg/ml b leomy cin sulfate, 5 mM magnesium chloride, 50 mM ferric chloride, 2 mM tested compound. L-ascorbic acid (2 mM) was used as a positive control. The mixture was incubated at 37 °C for 1 hour. The activity of test compounds was evaluated as malondialdehyde equivalents. Thiobarbituric acid reactive substances, which arose from deoxyribose degradation of DNA were assessed. The reaction was terminated by the addition of 0.05 ml 0.1 M EDTA. The color was developed by adding 0.5 ml of 1% w/v thiobarbituric acid and 0.5 ml of 25% v/v HCl (25% v/v). The tube was capped with a screw cap and heated at 80 °C for 30 min. After cooling in ice water, the mixture was then shaken and centrifuged and the extent of DNA damage was measured by an increase in absorbance at […]
Table S4. The Bleomycin-dependent DNA damage assay.
Compd. No. DNA damage assay % of Vitamin C […]
a ascorbic acid is used as a standard for antioxidant activity; values are means of 3 replicates; b not detected.

MCF-7 = tested on: MCF-7; design: method as in PMID 29864687, doi:10.1016/j.arabjc.2021.103051; details: read-out: IC50 (cytotoxic activity against MCF-7); cited from earlier work
[4] = Bleomycin-induced DNA damage, DPPH and ABTS in vitro radical scavenging assays; details: DPPH, ABTS assays
Description: as §1, §4
The assay was performed according to the reported method with minor modifications. […] The activity of test compounds was evaluated as malondialdehyde equivalents. Thiobarbituric acid reactive substances, which arose from deoxyribose degradation of DNA were assessed. […] After cooling in ice water, the mixture was then shaken and centrifuged and the extent of DNA damage was measured by an increase in absorbance at […]
a ascorbic acid is used as a standard for antioxidant activity; values are means of 3 replicates; b not detected. […]
The hydrogen atom or electron donation ability of the corresponding compounds was measured by estimating the bleaching of the purple color of a methanolic solution of DPPH. […] After 30 min of incubation in the dark, the absorbance was read against a blank at 517 nm. […] The radical scavenging activity was calculated using the following equ ation : I% = (Ablank- […]

158N cells [5] = assay: H2-DCFDA assay of ROS production (flow cytometry); type: cell-based, Murine; details: for Effect on ROS level / H2-DCF intensity (in words): 158 N cells, 0–50 μM, vitamin E as control; for H2-DCFDA assay (% of control), ROS production: 158N cells, mean ± SD
Description: as §1, §3
ROS overproduction and O2•− were detected with DCF and DHE, respectively. Cultured cells were treated with trypsin re-suspended in PBS (10^6 cells/mL) and kept in the dark for a half-hour at 37°C with H2-DCFDA or DHE at 10 μM and 2 μM and cells were analyzed by flow cytometry.
The green fluorescence of 2’,7’- dichlorofluorescein resulting from the oxidation of H2-DCFDA was analyzed by flow cytometry and collected through a 520/10-nm bandpass filter. DHE, a non-fluorescent compound, rapidly oxidized in ethidium under the action of O2•− to give 2-hydroxyethidium that intercalates with DNA giving red fluorescence of ethidium collected through a 590/10-nm bandpass filter using an excitation of 488 nm and an emission wavelength of 575 nm.
Flomax (Partec) or FlowJo (Tree Star Inc.) software was used for th e data analysis.
Table S2. Evaluation of the effects of compounds on ROS production by H2-DCFDA assay.
H2-DCFDA assay (% of control)
158N Cells were cultured in the presence of different compounds (C1=10; C2= 20; C3=50 µM); Flow cytometry technique was used to evaluate ROS levels via staining cells with H2-DCF; data are shown as mean ± SD and expressed as % control; the significance of the difference between the DMSO and compounds. Treated cells are indicated by (Mann–Whitney test; *: P < 0.05); vitamin E (50 µM) was used as a positive control.

## CC1=C([Se]c2ccc(N)cc2)C(=O)c2ccccc2C1=O [Compound 4]
158N cells [1]
  IC50: 27 µM
158N cells [2]; 158 N cells, 0–50 μM
  Effect on O2− production in DHE assay (in words): promote the production of O2^−
158N cells [2]; C1 (10 µM)
  DHE assay (% of positive cells), superoxide anion production: 264 ±25 % of positive cells
158N cells [2]; C2 (20 µM)
  DHE assay (% of positive cells), superoxide anion production: 406±29 % of positive cells
158N cells [2]; C3 (50 µM), vitamin E 50 µM
  DHE assay (% of positive cells), superoxide anion production: 417±31 % of positive cells
HepG2
  IC50: 900 nM
[3]
  GPx-like activity (in words): moderate GPx-like activity
158JP cells; 0, 1, 10, 20, 50, 100 µM
  IC50 (viability of 158JP cells): no growth inhibition was observed
Calf thymus DNA
  Bleomycin-dependent DNA damage assay (Abs.): 483
  Bleomycin-dependent DNA damage, % of Vitamin C: 48.8%
MCF-7
  IC50: 14.7 µM
[4]
  Pro-oxidant properties compared to vitamin C: up to 60%
158N cells [5]
  Effect on ROS level / H2-DCF intensity (in words): pronounced pro-oxidant activity
158N cells [5]; C1 (10 µM)
  H2-DCFDA assay (% of control), ROS production: 700 ± 143 % of control
158N cells [5]; C2 (20 µM)
  H2-DCFDA assay (% of control), ROS production: 854 ± 135 % of control
158N cells [5]; C3 (50 µM), vitamin E 50 µM
  H2-DCFDA assay (% of control), ROS production: 935 ± 307 % of control

## VITAMINE E [reference compound]
158N cells [2]; C3 (50 µM), vitamin E 50 µM
  DHE assay (% of positive cells), superoxide anion production: 74± 1 % of positive cells
158N cells [5]; C3 (50 µM), vitamin E 50 µM
  H2-DCFDA assay (% of control), ROS production: 94 ± 5 % of control

## O=C1O[C@H]([C@@H](O)CO)C(O)=C1O [Vit.C, L-ascorbic acid, reference compound]
Calf thymus DNA
  Bleomycin-dependent DNA damage assay (Abs.): 989
  Bleomycin-dependent DNA damage, % of Vitamin C: 100%

## CC(C)CCC[C@@H](C)[C@H]1CC[C@H]2[C@@H]3C(=O)C=C4C[C@@H](O)CC[C@]4(C)[C@H]3CC[C@]12C [Compound 7kc, 7-ketocholesterol, reference compound]
158N cells [1]
  IC50: 37 µM
158JP cells; Mus musculus, 0, 1, 10, 20, 50, 100 µM, read-out: IC50 (viability of 158JP cells)
  IC50: 74 µM

## CC(=O)Nc1ccc([Se]C2=C(C)C(=O)c3ccccc3C2=O)cc1 [Compound 5, N-(4-((3-Methyl-1,4-dioxo-1,4-dihydronaphthalen-2-yl)selanyl)phenyl)acetamide]
158N cells [1]
  IC50: 11 µM
158N cells [2]; C1 (10 µM)
  DHE assay (% of positive cells), superoxide anion production: 109±12 % of positive cells
158N cells [2]; C2 (20 µM)
  DHE assay (% of positive cells), superoxide anion production: 121 ±1 % of positive cells
158N cells [2]; C3 (50 µM), vitamin E 50 µM
  DHE assay (% of positive cells), superoxide anion production: 120 ±4 % of positive cells
[3]
  GPx-like activity (in words): moderate GPx-like activity
Calf thymus DNA
  Bleomycin-dependent DNA damage assay (Abs.): 581
  Bleomycin-dependent DNA damage, % of Vitamin C: 58.8%
[4]
  Pro-oxidant properties compared to vitamin C: up to 60%
158N cells [5]
  Effect on ROS level / H2-DCF intensity (in words): decrease the H2-DCF intensity; also recorded: decreased the ROS level
158N cells [5]; C1 (10 µM)
  H2-DCFDA assay (% of control), ROS production: 7 ± 2 % of control
158N cells [5]; C2 (20 µM)
  H2-DCFDA assay (% of control), ROS production: 5 ± 1 % of control
158N cells [5]; C3 (50 µM), vitamin E 50 µM
  H2-DCFDA assay (% of control), ROS production: 6 ± 1 % of control
